≈ marks a conversion by molar mass, not a printed value.
How the values were obtained:
Format in all cases: functional
[1] = system: Mycobacterium tuberculosis; test: Antituberculosis activity against Mycobacterium tuberculosis H37Rv assessed as growth inhibition after 12 to 28 days by L-J MIC method; conditions: for MIC: Mycobacterium tuberculosis, H37Rv
Candida albicans [2] = test: Antimicrobial activity against Candida albicans MTCC 183 assessed as growth inhibition after 48 hr by agar streak dilution technique; conditions: MTCC 183, 48 h
Aspergillus niger [3] = test: Antimicrobial activity against Aspergillus niger MTCC 282 assessed as growth inhibition after 48 hr by agar streak dilution technique; conditions: MTCC 282, 48 h
Pseudomonas aeruginosa [4] = test: Antimicrobial activity against Pseudomonas aeruginosa MTCC 741 assessed as growth inhibition after 24 hr by agar streak dilution technique; conditions: MTCC 741, 24 h
Escherichia coli [5] = test: Antimicrobial activity against Escherichia coli MTCC 739 assessed as growth inhibition after 24 hr by agar streak dilution technique; conditions: MTCC 739, 24 h
Bacillus subtilis [6] = test: Antimicrobial activity against Bacillus subtilis MTCC 430 assessed as growth inhibition after 24 hr by agar streak dilution technique; conditions: MTCC 430, 24 h
Staphylococcus aureus [7] = test: Antimicrobial activity against Staphylococcus aureus MTCC 96 assessed as growth inhibition after 24 hr by agar streak dilution technique; conditions: MTCC 96, 24 h
Candida albicans [8] = test: Antimicrobial activity against Candida albicans MTCC 183 assessed as diameter of growth inhibition zone after 24 hr by paper disk diffusion technique; also: test concentration or dose not given here
Aspergillus niger [9] = test: Antimicrobial activity against Aspergillus niger MTCC 282 assessed as diameter of growth inhibition zone after 24 hr by paper disk diffusion technique; also: test concentration or dose not given here
Pseudomonas aeruginosa [10] = test: Antimicrobial activity against Pseudomonas aeruginosa MTCC 741 assessed as diameter of growth inhibition zone after 24 hr by paper disk diffusion technique; also: test concentration or dose not given here
Escherichia coli [11] = test: Antimicrobial activity against Escherichia coli MTCC 739 assessed as diameter of growth inhibition zone after 24 hr by paper disk diffusion technique; also: test concentration or dose not given here
Bacillus subtilis [12] = test: Antimicrobial activity against Bacillus subtilis MTCC 430 assessed as diameter of growth inhibition zone after 24 hr by paper disk diffusion technique; also: test concentration or dose not given here
Staphylococcus aureus [13] = test: Antimicrobial activity against Staphylococcus aureus MTCC 96 assessed as diameter of growth inhibition zone after 24 hr by paper disk diffusion technique; also: test concentration or dose not given here

Structure (SMILES) | growth inhibition (GI) [1] [%] | MIC [1] [µg/mL] | MIC (Candida albicans [2]) [µg/mL] | MIC (Aspergillus niger [3]) [µg/mL] | MIC (Pseudomonas aeruginosa [4]) [µg/mL] | MIC (Escherichia coli [5]) [µg/mL] | MIC (Bacillus subtilis [6]) [µg/mL] | MIC (Staphylococcus aureus [7]) [µg/mL] | diameter of the inhibition zone (DIZ) (Candida albicans [8]) [mm] | diameter of the inhibition zone (DIZ) (Aspergillus niger [9]) [mm] | diameter of the inhibition zone (DIZ) (Pseudomonas aeruginosa [10]) [mm] | diameter of the inhibition zone (DIZ) (Escherichia coli [11]) [mm] | diameter of the inhibition zone (DIZ) (Bacillus subtilis [12]) [mm] | diameter of the inhibition zone (DIZ) (Staphylococcus aureus [13]) [mm]
O=C1C(Cl)C(c2cc3ccccc3nc2Cl)N1c1ccc([N+](=O)[O-])cc1 (centres undefined) | 96 | 50 (≈ 129 µM) | 100 (≈ 258 µM) | 50 (≈ 129 µM) | 12.5 (≈ 32.2 µM) | 100 (≈ 258 µM) | 50 (≈ 129 µM) | 12.5 (≈ 32.2 µM) | 19 | 24 | 23 | 20 | 23 | 25
O=C1C(Cl)C(c2cc3ccccc3nc2Cl)N1c1ccccc1Cl (centres undefined) | 97 | 62.5 (≈ 165 µM) | 100 (≈ 265 µM) | 100 (≈ 265 µM) | 50 (≈ 132 µM) | 62.5 (≈ 165 µM) | 12.5 (≈ 33.1 µM) | 62.5 (≈ 165 µM) | 18 | 19 | 20 | 21 | 24 | 24
O=C1C(Cl)C(c2cc3ccccc3nc2Cl)N1c1cccc(Cl)c1 (centres undefined) | 98 | 50 (≈ 132 µM) | 62.5 (≈ 165 µM) | 62.5 (≈ 165 µM) | 25 (≈ 66.2 µM) | 62.5 (≈ 165 µM) | 12.5 (≈ 33.1 µM) | 25 (≈ 66.2 µM) | 20 | 25 | 22 | 21 | 23 | 25
O=C1C(Cl)C(c2cc3ccccc3nc2Cl)N1c1ccc(Cl)cc1 (centres undefined) | 95 | 100 (≈ 265 µM) | 62.5 (≈ 165 µM) | 100 (≈ 265 µM) | 25 (≈ 66.2 µM) | 50 (≈ 132 µM) | 12.5 (≈ 33.1 µM) | 50 (≈ 132 µM) | 21 | 22 | 23 | 22 | 24 | 21
O=C1C(Cl)C(c2cc3ccccc3nc2Cl)N1c1ccc(F)cc1 (centres undefined) | 98 | 25 (≈ 69.2 µM) | 50 (≈ 138 µM) | 25 (≈ 69.2 µM) | 50 (≈ 138 µM) | 25 (≈ 69.2 µM) | 25 (≈ 69.2 µM) | 25 (≈ 69.2 µM) | 24 | 26 | 22 | 23 | 23 | 23
Cc1cnc(N2C(=O)C(Cl)C2c2cc3ccccc3nc2Cl)s1 (centres undefined) | 99 | 12.5 (≈ 34.3 µM) | 100 (≈ 275 µM) | 62.5 (≈ 172 µM) | 50 (≈ 137 µM) | 25 (≈ 68.6 µM) | 50 (≈ 137 µM) | 50 (≈ 137 µM) | 23 | 23 | 21 | 24 | 21 | 23

— ChEMBL document CHEMBL3045012, “Quinoline-based azetidinone and thiazolidinone analogues as antimicrobial and antituberculosis agents” (2013)
